Data on 12 compounds can be found in patent US20090137499A1, “BENZYLPHENYL GLUCOPYRANOSIDE DERIVATIVE” (priority 2006, published 2009).

Molecules are shown by their SMILES.

In the test the target is T1, human SGLT2 (Homo sapiens, UniProt P31639).
T1 construct: expressed in transfected cells
T1 sequence (P31639 1-672): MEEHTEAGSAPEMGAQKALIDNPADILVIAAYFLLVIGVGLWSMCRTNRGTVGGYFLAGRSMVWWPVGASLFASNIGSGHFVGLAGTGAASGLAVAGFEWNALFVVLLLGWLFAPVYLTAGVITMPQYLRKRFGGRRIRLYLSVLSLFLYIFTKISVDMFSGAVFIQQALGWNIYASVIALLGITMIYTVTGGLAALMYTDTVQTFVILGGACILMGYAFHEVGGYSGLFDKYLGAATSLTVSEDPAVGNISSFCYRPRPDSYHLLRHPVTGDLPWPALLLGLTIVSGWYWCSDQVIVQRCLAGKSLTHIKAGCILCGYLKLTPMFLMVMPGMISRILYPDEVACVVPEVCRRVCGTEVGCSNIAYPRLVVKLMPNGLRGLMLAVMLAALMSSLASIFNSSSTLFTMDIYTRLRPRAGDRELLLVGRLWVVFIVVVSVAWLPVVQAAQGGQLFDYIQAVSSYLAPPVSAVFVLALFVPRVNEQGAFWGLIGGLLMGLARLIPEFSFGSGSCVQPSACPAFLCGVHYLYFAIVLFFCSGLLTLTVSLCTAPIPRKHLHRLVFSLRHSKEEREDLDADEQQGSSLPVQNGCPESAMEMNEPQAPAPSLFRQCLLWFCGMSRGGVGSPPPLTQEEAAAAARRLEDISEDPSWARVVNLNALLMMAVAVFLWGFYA
Description: Determination of SGLT2 inhibiting activity using human SGLT2 expressing cell ([14C]-α-methyl-D-glucopyranoside uptake). To be noted: HEK-SGLT2 cells, 1 mM [14C]-α-methyl-D-glucopyranoside, 37° C., 30 min. Format: cell-based. As to the method: Determination of SGLT2 Inhibiting Activity Using Human SGLT2 Expressing Cell
1) Preparation of Vector Expressing Human SGLT2 cDNA in Animal Cell
Amplification was performed by PCR using human SGLT2 cDNA clone (Origene: Clone Number, TC303267; GenBank accession number, NM 003041) as a template. The sense oligonucleotide primer for PCR was 5′-[…]-3′ (Primer 3: SEQ ID NO: 3 in the sequence listing),
and the antisense oligonucleotide primer was 5′-[…]-3′ (Primer 4: SEQ ID NO: 4 in the sequence listing). The PCR product was subjected to agarose electrophoresis, then a target DNA fragment was recovered from a single band corresponding to 2037 bases, digested with restriction enzymes HindIII and XhoI, and introduced into the HindIII/XhoI site of vector pCMV-Script (Stratagene) to obtain SGLT2 expressing plasmid pCMV-SGLT2. A HindIII/XhoI fragment was excised from pCMV-SGLT2 and introduced into the BamHI/XhoI site of pENTR1A (Gateway, Invitrogen) to prepare pENTR-SGLT2. Retrovirus vector pLPCX (Clontech) into which Gateway Vector Conversion System Cassette A (Invitrogen) was introduced was used as the destination plasmid to prepare SGLT2 expressing retrovirus vector pLPCX-SGLT2.
2) Establishment of Human SGLT2 Expressing Cell
The retrovirus pLPCX-SGLT2 obtained in 1) was transfected into integrin αvβ3 expressing HEK-293 cells, the cells were treated with antibiotic G418 (brand name, Geneticin: Invitrogen) and puromycin (Clontech) to obtain HEK-SGLT2 cells stably expressing the target vector having resistance. The stably expressing cells were cultured and maintained in DMEM medium containing […] G418, […] puromycin, 3 mM KGT-1075, and 10% FBS.
3) Determination of SGLT2 Inhibiting Activity
HEK-SGLT2 cells were suspended at a density of 10^6 cells/mL in DMEM medium containing 250 mg/mil G418, 1 mg/ml puromycin, and 10% FBS, and 100 μL was seeded in each well of a type 1 collagen-coated 96-well culture plate (Corning). On the following day, the medium was replaced with a sugar uptake buffer (10 mM HEPES [pH 7.5], 5 mM Tris-HCl [pH 7.5], 140 mM NaCl, 2 mM KCl, 1 mM CaCl2, 1 mM MgCl2), and the cells were cultured with 1 mM [^14C]-α-methyl-D-glucopyranoside (0.1 mCi) and a test compound at 37° C. for 30 min, and then washed 3 times with a washing buffer (10 mM HEPES (pH 7.5), 5 mM Tris-HCl (pH 7.5), 140 mM choline chloride, 2 mM KCl, 1 mM CaCl2, 1 mM MgCl2). 100 μL of liquid scintillation cocktail (brand name, Supermix: Perkin-Elmer) was added to each well of the 96-well plate and stirred for 10 min, and then radioactivity was determined with micro β (Perkin-Elmer), a type of liquid scintillation counter. The value obtained by deducting the radioactivity in the presence of an excess amount of an SGLT2 inhibiting compound as the background from each measured value was taken as the sugar uptake activity, the inhibition rate (%) was calculated from the control sugar uptake activity obtained without using a test compound and the sugar uptake activity obtained using a test compound having a predetermined concentration, and the concentrations of the test compound at which the sugar uptake activity was inhibited by 50% were assessed.

By IC50 is commonly meant the concentration that gives 50% inhibition. Read a low IC50 as greater potency. In turn, `COc1ccc(Cc2ccc(CO)cc2O[C@@H]2O[C@H]([C@@H](C)O)[C@@H](O)[C@H](O)[C@H]2O)c(F)c1` [Example 82, 2-(2-Fluoro-4-methoxybenzyl)-5-hydroxymethylphenyl 7-deoxy-D-glycero-β-D-gluco-heptopyranoside] returned an IC50 of 9.4 nM.
The result for `COc1ccc(Cc2c(OC)cc(CO)cc2O[C@@H]2O[C@H]([C@@H](C)O)[C@@H](O)[C@H](O)[C@H]2O)cc1` [Example 83, 5-Hydroxymethyl-3-methoxy-2-(4-methoxybenzyl)phenyl 7-deoxy-D-glycero-β-D-gluco-heptopyranoside] reads 39 nM; that for `COc1ccc(Cc2c(F)cc(CO)cc2O[C@@H]2O[C@H]([C@@H](C)O)[C@@H](O)[C@H](O)[C@H]2O)cc1` [Example 84, 3-Fluoro-5-hydroxymethyl-2-(4-methoxybenzyl)phenyl 7-deoxy-D-glycero-β-D-gluco-heptopyranoside], 6.3 nM; that for `C[C@@H](O)[C@H]1O[C@@H](Oc2cc(CO)cc(F)c2Cc2ccc(C3CC3)cc2)[C@H](O)[C@@H](O)[C@@H]1O` [Example 88, 2-(4-Cyclopropylbenzyl)-3-fluoro-5-hydroxymethylphenyl 7-deoxy-D-glycero-β-D-gluco-heptopyranoside], 19 nM.
The result for `CCc1ccc(Cc2c(C)cc(CO)cc2O[C@@H]2O[C@H]([C@@H](C)O)[C@@H](O)[C@H](O)[C@H]2O)cc1` [Example 89, 2-(4-Ethylbenzyl)-5-hydroxymethyl-3-methylphenyl 7-deoxy-D-glycero-β-D-gluco-heptopyranoside] reads 35 nM; that for `CCOc1ccc(Cc2ccc(CO)cc2O[C@@H]2O[C@H]([C@@H](C)O)[C@@H](O)[C@H](O)[C@H]2O)cc1` [Example 93, 2-(4-Ethoxybenzyl)-5-hydroxymethylphenyl 7-deoxy-D-glycero-β-D-gluco-heptapyranoside], 13 nM; that for `COc1ccc(Cc2c(C)cc(CO)cc2O[C@@H]2O[C@H]([C@@H](C)O)[C@@H](O)[C@H](O)[C@H]2O)cc1` [Example 94, 5-Hydroxymethyl-2-(4-methoxybenzyl)-3-methylphenyl 7-deoxy-D-glycero-β-D-gluco-heptopyranoside], 11 nM.
In turn, `C[C@@H](O)[C@H]1O[C@@H](Oc2cc(CO)cc(Cl)c2Cc2ccc(OC3CC3)cc2)[C@H](O)[C@@H](O)[C@@H]1O` [Example 95, 3-Chloro-2-(4-cyclopropoxybenzyl)-5-hydroxymethyl-phenyl 7-deoxy-D-glycero-β-D-gluco-heptopyranoside] came in with an IC50 of 49 nM.
In turn, `Cc1cc(CO)cc(O[C@@H]2O[C@H]([C@@H](C)O)[C@@H](O)[C@H](O)[C@H]2O)c1Cc1ccc(OC2CC2)cc1` [Example 96, 2-(4-Cyclopropoxybenzyl)-5-hydroxymethyl-3-methyl-phenyl 7-deoxy-D-glycero-β-D-gluco-heptopyranoside] showed an IC50 of 36 nM.
The result for `Cc1ccc(Cc2c(F)cc(CO)cc2O[C@@H]2O[C@H]([C@@H](C)O)[C@@H](O)[C@H](O)[C@H]2O)cc1` [Example 97, 3-Fluoro-5-hydroxymethyl-2-(4-methylbenzyl)phenyl 7-deoxy-D-glycero-β-D-gluco-heptopyranoside] reads 11 nM; that for `Cc1ccc(Cc2ccc(CO)cc2O[C@@H]2O[C@H]([C@@H](C)O)[C@@H](O)[C@H](O)[C@H]2O)cc1` [Example 98, 5-Hydroxymethyl-2-(4-methylbenzyl)phenyl 7-deoxy-D-glycero-β-D-gluco-heptapyranoside], 17 nM; that for `C=Cc1cc(CO)cc(O[C@@H]2O[C@H]([C@@H](C)O)[C@@H](O)[C@H](O)[C@H]2O)c1Cc1ccc(OC)cc1` [Example 101, 5-Hydroxymethyl-2-(4-methoxybenzyl)-3-vinyl-phenyl 7-deoxy-D-glycero-β-D-gluco-heptopyranoside], 136 nM.
